Counter-ions that a name gives are not always drawn.
How the values were obtained:
[1] = system: WNT signaling; assay: WNT reporter assay (TopGFP reporter); assay type: cell-based; details: Human Colonic Epithelial Cells (HCEC) with TopGFP reporter, stimulated with 10 μM CHIR99021, 24 hours
From the text: KDs were obtained from Eurofins.

[2] = biological target: DYRK1A (Homo sapiens, UniProt Q13627); assay: biochemical
Procedure: KDs were obtained from Eurofins. The KdELECT Kinase Assay Panel enables quantitated compound binding affinity against any kinase assay. Inhibitor binding constants (Kd values) are calculated from duplicate 11-point dose-response curves. Measurements are made under optimized conditions that generate true thermodynamic Kd values which facilitate direct comparison of inhibitor affinity across kinases.

Row | EC50 [1] [nM] | Kd [2] [nM] | SMILES
1 | 100 to 1000 | < 100 | Nc1cc(-c2ccc3ncnc(-c4ccc(N5CCOCC5)c(F)c4)c3c2)ccn1 [Compound 1, 4-(4-(3-fluoro-4-morpholinophenyl)quinazolin-6-yl)pyridin-2-amine]
2 | 100 to 1000 | < 100 | Nc1cc(-c2ccc3ncnc(-c4ccc(CN5CCOCC5)c(F)c4)c3c2)ccn1 [Compound 3, 4-(4-(3-fluoro-4-(morpholinomethyl)phenyl)quinazolin-6-yl)pyridin-2-amine]
3 | > 1000 | < 100 | Nc1cc(-c2ccc3ncnc(-c4cccc(N5CCOCC5)c4)c3c2)ccn1 [Compound 4, 4-(4-(3-morpholinophenyl)quinazolin-6-yl)pyridin-2-amine]
4 |  | < 100 | Nc1cc(-c2ccc3ncnc(-c4cc(F)cc(N5CCOCC5)c4)c3c2)ccn1 [Compound 5, 4-(4-(3-fluoro-5-morpholinophenyl)quinazolin-6-yl)pyridin-2-amine]
5 |  | < 100 | Nc1cc(-c2ccc3ncnc(-c4ccc(N5CCS(=O)(=O)CC5)cc4)c3c2)ccn1 [Compound 6, 4-(4-(6-(2-aminopyridin-4-yl)quinazolin-4-yl)phenyl)thiomorpholine 1,1-dioxide]
6 |  | < 100 | CN1CCN(c2ccc(-c3ncnc4ccc(-c5ccnc(N)c5)cc34)cc2)CC1 [Compound 7, 4-(4-(4-(4-methylpiperazin-1-yl)phenyl)quinazolin-6-yl)pyridin-2-amine]
7 | > 1000 | < 100 | Nc1cc(-c2ccc3ncnc(-c4cccc(CN5CCOCC5)c4)c3c2)ccn1 [Compound 8, 4-(4-(3-(morpholinomethyl)phenyl)quinazolin-6-yl)pyridin-2-amine]
8 | 100 to 1000 | < 100 | CN1CCN(c2ncc(-c3ncnc4ccc(-c5ccnc(N)c5)cc34)cc2F)CC1 [Compound 9, 4-(4-(5-fluoro-6-(4-methylpiperazin-1-yl)pyridin-3-yl)quinazolin-6-yl)pyridin-2-amine]
9 |  | < 100 | Nc1cc(-c2ccc3ncnc(-c4ccc(N5CCOCC5)nc4)c3c2)ccn1 [Compound 10, 4-(4-(6-morpholinopyridin-3-yl)quinazolin-6-yl)pyridin-2-amine]
10 | 100 to 1000 | < 100 | Nc1cc(-c2ccc3ncnc(-c4cnc(N5CCOCC5)c(F)c4)c3c2)ccn1 [Compound 11, 4-(4-(5-fluoro-6-morpholinopyridin-3-yl)quinazolin-6-yl)pyridin-2-amine]
11 | < 100 | < 100 | Nc1cc(-c2ccc3ncnc(-c4ccc(N5CCOCC5)c(F)c4)c3n2)ccn1 [Compound 12, 4-(4-(3-fluoro-4-morpholinophenyl)pyrido[3,2-d]pyrimidin-6-yl)pyridin-2-amine]
12 | 100 to 1000 |  | Nc1cc(-c2ccc3nccc(-c4cnc(N5CCOCC5)c(F)c4)c3c2)ccn1 [Compound 13, 4-(4-(5-fluoro-6-morpholinopyridin-3-yl)quinolin-6-yl)pyridin-2-amine]
13 | > 1000 | < 100 | Nc1cc(-c2ccc3ncnc(-c4ccnc(N5CCOCC5)c4)c3c2)ccn1 [Compound 14, 4-(4-(2-morpholinopyridin-4-yl)quinazolin-6-yl)pyridin-2-amine]
14 | 100 to 1000 | < 100 | Nc1nccc(-c2ccc3ncnc(-c4ccc(N5CCOCC5)c(F)c4)c3c2)n1 [Compound 15, 4-(4-(3-fluoro-4-morpholinophenyl)quinazolin-6-yl)pyrimidin-2-amine]
15 | 100 to 1000 | < 100 | Nc1cc(-c2ccc3ncnc(-c4ccc(N5CCOCC5)cc4)c3c2)ccn1 [Compound 16, 4-(4-(4-morpholinophenyl)quinazolin-6-yl)pyridin-2-amine]
16 | > 1000 | < 100 | Cc1cc(-c2ccc3ncnc(-c4ccc(N5CCOCC5)c(F)c4)c3n2)ccn1 [Compound 17, 4-(2-fluoro-4-(6-(2-methylpyridin-4-yl)pyrido[3,2-d]pyrimidin-4-yl)phenyl)morpholine]
17 |  | > 1000 | Nc1cc(-c2ccc3ncnc(-c4ccc(CN5CCOCC5)cc4)c3c2)ccn1 [Compound 18, 4-(4-(4-(morpholinomethyl)phenyl)quinazolin-6-yl)pyridin-2-amine]
18 | 100 to 1000 | < 100 | Nc1cc(-c2ccc3ncnc(-c4cnc(N5CCC(N6CCOCC6)CC5)c(F)c4)c3c2)ccn1 [Compound 19, 4-(4-(5-fluoro-6-(4-morpholinopiperidin-1-yl)pyridin-3-yl)quinazolin-6-yl)pyridin-2-amine]
19 | > 1000 | < 100 | CC1(C)CN(c2ncc(-c3ncnc4ccc(-c5ccnc(N)c5)cc34)cc2F)CCO1 [Compound 20, 4-(4-(6-(2,2-dimethylmorpholino)-5-fluoropyridin-3-yl)quinazolin-6-yl)pyridin-2-amine]

Row | EC50 [1] [nM] | Kd [2] [nM] | SMILES
20 | 100 to 1000 | < 100 | COc1ccc(-c2ncnc3ccc(-c4ccnc(N)c4)cc23)cc1C [Compound 21, 4-(4-(4-methoxy-3-methylphenyl)quinazolin-6-yl)pyridin-2-amine]
21 | < 100 | < 100 | CC(=O)N1CCN(c2ccc(-c3ncnc4ccc(-c5ccnc(N)c5)cc34)cc2)CC1 [Compound 22, 1-(4-(4-(6-(2-aminopyridin-4-yl)quinazolin-4-yl)phenyl)piperazin-1-yl)ethan-1-one]
22 | 100 to 1000 | < 100 | Nc1cc(-c2ccc3ncnc(-c4cnc(N5CCC6(CCOC6)CC5)c(F)c4)c3c2)ccn1 [Compound 23, 4-(4-(5-fluoro-6-(2-oxa-8-azaspiro[4.5]decan-8-yl)pyridin-3-yl)quinazolin-6-yl)pyridin-2-amine hydrochloride]
23 | > 1000 | < 100 | Nc1cc(-c2ccc3ncnc(-c4cnc(N5CCNCC5)c(F)c4)c3c2)ccn1 [Compound 24, 4-(4-(5-fluoro-6-(piperazin-1-yl)pyridin-3-yl)quinazolin-6-yl)pyridin-2-amine hydrochloride]
24 | < 100 | < 100 | CN1CCN(c2ccc(-c3ncnc4ccc(-c5ccnc(N)c5)cc34)cc2F)CC1 [Compound 25, 4-(4-(3-fluoro-4-(4-methylpiperazin-1-yl)phenyl)quinazolin-6-yl)pyridin-2-amine]
25 | 100 to 1000 | < 100 | CN1CCN(c2ncc(-c3ncnc4ccc(-c5c[nH]c6ncccc56)cc34)cc2F)CC1 [Compound 26, 4-(5-fluoro-6-(4-methylpiperazin-1-yl)pyridin-3-yl)-6-(1H-pyrrolo[2,3-b]pyridin-3-yl)quinazoline]
26 | 100 to 1000 | < 100 | Fc1cc(-c2ncnc3ccc(-c4c[nH]c5ncccc45)cc23)cnc1N1CCNCC1 [Compound 27, 4-(5-fluoro-6-(piperazin-1-yl)pyridin-3-yl)-6-(1H-pyrrolo[2,3-b]pyridin-3-yl)quinazoline]
27 | 100 to 1000 | < 100 | Nc1cc(-c2ccc3ncnc(-c4ccc(N5CC6(COC6)C5)c(F)c4)c3c2)ccn1 [Compound 28, 4-(4-(3-fluoro-4-(2-oxa-6-azaspiro[3.3]heptan-6-yl)phenyl)quinazolin-6-yl)pyridin-2-amine]
28 | 100 to 1000 | < 100 | Nc1cc(-c2ccc3ncnc(-c4ccc(N5C[C@@H]6C[C@H]5CO6)c(F)c4)c3c2)ccn1 [Compound 29, 4-(4-(4-((1S,4S)-2-oxa-5-azabicyclo[2.2.1]heptan-5-yl)-3-fluorophenyl)quinazolin-6-yl)pyridin-2-amine]
29 | 100 to 1000 | < 100 | Nc1cc(-c2ccc3ncnc(-c4cnc(N5CCC6(CCNC6=O)CC5)c(F)c4)c3c2)ccn1 [Compound 30, 8-(5-(6-(2-aminopyridin-4-yl)quinazolin-4-yl)-3-fluoropyridin-2-yl)-2,8-diazaspiro[4.5]decan-1-one]
30 | < 100 |  | CC(=O)N1CCN(c2ccc(-c3ncnc4ccc(-c5cn[nH]c5)cc34)cc2)CC1 [Compound 37, 1-(4-(4-(6-(1H-pyrazol-4-yl)quinazolin-4-yl)phenyl)piperazin-1-yl)ethan-1-one]
31 | 100 to 1000 |  | Nc1cc(-c2ccc3ncnc(-c4ccc(N5CC6(C5)CN(C5COC5)C6)c(F)c4)c3c2)ccn1 [Compound 57, 4-(4-(3-fluoro-4-(6-(oxetan-3-yl)-2,6-diazaspiro[3.3]heptan-2-yl)phenyl)quinazolin-6-yl)pyridin-2-amine]
32 | < 100 |  | CC(=O)N1CC2(C1)CN(c1ccc(-c3ncnc4ccc(-c5ccnc(N)c5)cc34)cc1F)C2 [Compound 58, 1-(6-(4-(6-(2-aminopyridin-4-yl)quinazolin-4-yl)-2-fluorophenyl)-2,6-diazaspiro[3.3]heptan-2-yl)ethan-1-one]
33 | < 100 |  | CS(=O)(=O)N1CCN(c2ccc(-c3ncnc4ccc(-c5ccnc(N)c5)cc34)cc2Cl)CC1 [Compound 59, 4-(4-(3-chloro-4-(4-(methylsulfonyl)piperazin-1-yl)phenyl)quinazolin-6-yl)pyridin-2-amine]
34 | > 1000 |  | CN[C@H]1CCN(c2ccc(-c3ncnc4ccc(-c5ccnc(N)c5)cc34)cc2F)C1 [Compound 60, (S)-4-(4-(3-fluoro-4-(3-(methylamino)pyrrolidin-1-yl)phenyl)quinazolin-6-yl)pyridin-2-amine]
35 | 100 to 1000 |  | Cc1cc(-c2ncnc3ccc(-c4ccnc(N)c4)cc23)ccc1N1CCN(C)CC1 [Compound 61, 4-(4-(3-methyl-4-(4-methylpiperazin-1-yl)phenyl)quinazolin-6-yl)pyridin-2-amine]
36 | < 100 |  | CN1CCN(c2ccc(-c3ncnc4ccc(-c5ccnc(N)c5)cc34)cc2Cl)CC1 [Compound 62, 4-(4-(3-chloro-4-(4-methylpiperazin-1-yl)phenyl)quinazolin-6-yl)pyridin-2-amine]
37 | < 100 |  | CS(=O)(=O)N1CCN(c2ccc(-c3ncnc4ccc(-c5ccnc(N)c5)cc34)cc2C(F)(F)F)CC1 [Compound 63, 4-(4-(4-(4-(methylsulfonyl)piperazin-1-yl)-3-(trifluoromethyl)phenyl)quinazolin-6-yl)pyridin-2-amine]
38 | < 100 |  | Nc1cc(-c2ccc3ncnc(-c4ccc(N5CCN(CC6COC6)CC5)c(F)c4)c3c2)ccn1 [Compound 64, 4-(4-(3-fluoro-4-(4-(oxetan-3-ylmethyl)piperazin-1-yl)phenyl)quinazolin-6-yl)pyridin-2-amine]

— patent US20250382277A1, “SMALL MOLECULE INHIBITORS OF DYRK/CLK AND USES THEREOF” (Arizona Board of Regents on Behalf of the University of …, priority 2022, published 2025)
